Measurements published in patent publication US20230355568A1, “THERAPEUTIC AGENT FOR MALIGNANT MESOTHELIOMA AND METHOD FOR SELECTING PATIENT HAVING MALIGNANT MESOTHELIOMA” (National University Corporation Tokai National Higher …, priority 2020, published 2023).
Where a name gives a salt, the structure may show the parent alone. Bridge positions count the residues as written; N and C are the ends. Square brackets hold non-standard residues; d marks the D form. Peptide text beside a SMILES is read from it. Orn = NCCC[C@H](N)C(=O)O; Mpa = O=C(O)CCS

Assays:
[1] = system: malignant mesothelioma cell line NCI-2373; assay: WST-1 assay with oxytocin receptor inhibitor, NCI-2373; format: cell-based; settings: culture five days, Cligosiban 0-60 μM, other inhibitors 0-80 μM (FIG. 3, FIG. 4)
Protocol: (§1) The procedure is illustrated below. • (1) Cells of malignant mesothelioma cell line NCI-H2052 were seeded on a dish and cultured for one day. • (2) Cligosiban was administered to the dish at a concentration of 0, 5, 10, 15, 20, or 25 μM. • (3) After culture for five days, evaluation with WST-1 assay was performed. The WST-1 assay is an assay method to administer cell proliferation test agent WST-1 (product number: 11644807001, purchased from Roche) and evaluate cell proliferation by a colorimetric method.
The same procedure as that in Example 3 was applied except that the malignant mesothelioma cell line was replaced with NCI-2373 (purchased from ATCC) and Cligosiban was administered to the dish at a concentration of 0, 20, 30, 40, 50, or 60 μM.
The same procedure as that in Example 4 was applied except that the oxytocin receptor inhibitor was replaced with OT-R antagonist 1, which was administered to the dish at a concentration of 0, 20, 40, 60, or 80 μM.
The same procedure as that in Example 6 was applied except that the oxytocin receptor inhibitor was replaced with L368,899 hydrochloride.
The same procedure as that in Example 6 was applied except that the oxytocin receptor inhibitor was replaced with Atosiban.

[2] = system: malignant mesothelioma cell line NCI-H2052; assay: WST-1 assay with oxytocin receptor inhibitor, NCI-H2052; format: cell-based; settings: culture five days, Cligosiban 0-25 μM, other inhibitors 0-80 μM (FIG. 3, FIG. 4)
Protocol: as §1
The same procedure as that in Example 3 was applied except that the oxytocin receptor inhibitor was replaced with OT-R antagonist 1 (purchased from MedChemExpress), which was administered to the dish at a concentration of 0, 20, 40, 60, or 80 μM.
The same procedure as that in Example 5 was applied except that the oxytocin receptor inhibitor was replaced with L368,899 hydrochloride (purchased from MedChemExpress).
The same procedure as that in Example 5 was applied except that the oxytocin receptor inhibitor was replaced with Atosiban (purchased from MedChemExpress).

[3] = system: malignant mesothelioma cell line NCI-H2052; assay: Xenograft model: cisplatin and pemetrexed, Cligosiban, and combined use; format: in vivo; settings: NCI-H2052 subcutaneous in nude mice; Cligosiban oral 60 mg/kg every other day, 10 doses from day 7; cisplatin 2 mg/kg and pemetrexed 25 mg/kg once tail vein day 7; measured two days after tenth dose (FIG. 9)
Protocol: The procedure is illustrated below. • (1) 5.0×10^6 cells of malignant mesothelioma cell line NCI-H2052 (purchased from ATCC) were administered to the subcutaneous left buttock of nude mice (BALB/c nude (nu/nu) female, 6 to 8 weeks old: purchased from Charles River Japan). • (2) After 7 days from the subcutaneous administration, oral administration of Cligosiban (purchased from MedChemExpress) was started, and the oral administration was applied at each dose of 60 mg/kg every other day for a total of 10 doses. • (3) After 7 days from the subcutaneous administration, cisplatin (product number 033-20091, purchased from FUJIFILM Wako Pure Chemical Corporation) 2 mg/kg and pemetrexed disodium heptahydrate (product number 161-26263, purchased from FUJIFILM Wako Pure Chemical Corporation) 25 mg/kg were once injected into a tail vein. • (4) After two days from the tenth oral administration of Cligosiban, the nude mice were dissected, and the subcutaneous tumor weights were measured.
The same procedure as that in Example 25 was applied except that neither cisplatin nor pemetrexed was administered.
The same procedure as that in Example 25 was applied except that neither Cligosiban nor cisplatin and pemetrexed was administered.
The same procedure as that in Example 25 was applied except that Cligosiban was not administered.

[4] = system: malignant mesothelioma cell line NCI-H2052; assay: WST-1 assay, combined use of Cligosiban and cisplatin, NCI-H2052; format: cell-based; settings: Cligosiban 15 μM and/or cisplatin 0.8 μM, culture five days (FIG. 8)
Protocol: (§2) The procedure is illustrated below. • (1) Cells of malignant mesothelioma cell line NCI-H2373 were seeded on a dish and cultured for one day. • (2) Cligosiban 45 μM and cisplatin (product number 033-20091, purchased from FUJIFILM Wako Pure Chemical Corporation) 6 μM were administered to the dish. • (3) After culture for five days, evaluation with WST-1 assay was performed.
The same procedure as that in Example 21 was applied except that the malignant mesothelioma cell line was replaced with NCI-H2052 and that Cligosiban 15 μM and cisplatin 0.8 μM were administered to the dish.
The same procedure as that in Example 22 was applied except that the malignant mesothelioma cell line was replaced with NCI-H2052 and that Cligosiban 15 μM was administered.
The same procedure as that in Example 23 was applied except that neither Cligosiban 15 μM nor cisplatin 0.8 μM was administered.
The same procedure as that in Example 23 was applied except that only cisplatin 0.8 μM was administered.

[5] = system: malignant mesothelioma cell line NCI-H2373; assay: WST-1 assay, combined use of Cligosiban and cisplatin, NCI-H2373; format: cell-based; settings: Cligosiban 45 μM and/or cisplatin 6 μM, culture five days (FIG. 8)
Protocol: as §2
The same procedure as that in Example 21 was applied except that only Cligosiban 45 μM was administered.
The same procedure as that in Example 21 was applied except that neither Cligosiban 45 μM nor cisplatin 6 μM was administered.
The same procedure as that in Example 21 was applied except that only cisplatin 6 μM was administered.

[6] = system: malignant mesothelioma cell line NCI-H2052; assay: Proliferation suppression of malignant mesothelioma cells with Cligosiban using Xenograft model; format: in vivo; settings: NCI-H2052 subcutaneous in nude mice, Cligosiban oral 60 mg/kg every other day, 10 doses, vs no Cligosiban (FIG. 1)
Protocol: The procedure is illustrated below. • (1) 5.0×10^6 cells of malignant mesothelioma cell line NCI-H2052 (purchased from ATCC) were administered to the subcutaneous left buttock of nude mice (BALB/c nude (nu/nu) female, 6 to 8 weeks old: purchased from Charles River Japan). • (2) After 3 days from the subcutaneous administration, oral administration of Cligosiban (purchased from MedChemExpress) was started, and the oral administration was applied at each dose of 60 mg/kg every other day for a total of 10 doses. • (3) After one week from the tenth oral administration, the nude mice were dissected, and the subcutaneous tumor weights were measured.
The same procedure as that in Example 1 was applied except that no Cligosiban was administered.

Structure (SMILES) | proliferation of malignant mesothelioma cells (WST-1 assay) [1] | proliferation of malignant mesothelioma cells (WST-1 assay) [2] | subcutaneous tumor weight [3] | proliferation of malignant mesothelioma cells (WST-1 assay) [4] | proliferation of malignant mesothelioma cells (WST-1 assay) [5] | subcutaneous tumor weight ([6]; from day 3, measured one week after tenth dose) | growth of the subcutaneous tumor [6]
CCOc1ccc(C[C@H]2NC(=O)CCSSC[C@@H](C(=O)N3CCC[C@H]3C(=O)N[C@@H](CCCN)C(=O)NCC(N)=O)NC(=O)[C@H](CC(N)=O)NC(=O)[C@H]([C@@H](C)O)NC(=O)[C@H]([C@@H](C)CC)NC2=O)cc1 [Atosiban] ([Mpa][dY](Et)ITNCP[Orn]G-NH2; disulfide 1-6) | proliferation of malignant mesothelioma cells was suppressed | proliferation of malignant mesothelioma cells was suppressed | – | – | – | – | –
COCc1nnc(N2CC(Oc3ccc(F)cc3Cl)C2)n1-c1ccc(OC)nc1 [Cligosiban] | more suppresses proliferation of malignant mesothelioma cells | more suppresses proliferation of malignant mesothelioma cells | smaller than the subcutaneous tumor weight of Comparative example 16 | more suppresses proliferation of malignant mesothelioma cells than Comparative example 11 and Comparative example 13 | more suppresses proliferation of malignant mesothelioma cells than Comparative example 11 and Comparative example 13 | smaller than that of Comparative example 1 | suppresses growth of the subcutaneous tumor statistically, significantly compared to Comparative example 1
Cc1ccccc1N1CCN(S(=O)(=O)C[C@@]23CC[C@H](CC2NC(=O)[C@H](N)CCS(C)(=O)=O)C3(C)C)CC1 (stereo partly drawn) [L368,899 hydrochloride] | proliferation of malignant mesothelioma cells was suppressed | proliferation of malignant mesothelioma cells was suppressed | – | – | – | – | –
CO/N=C1/C[C@@H](C(=O)NC[C@@H](O)c2ccccc2)N(C(=O)c2ccc(-c3ccccc3C)cc2)C1 [OT-R antagonist 1] | proliferation of malignant mesothelioma cells was suppressed | proliferation of malignant mesothelioma cells was suppressed | – | – | – | – | –
N.N.[Cl][Pt][Cl] [cisplatin] | – | – | – | more suppresses proliferation of malignant mesothelioma cells than Comparative example 11 and Comparative example 13 | more suppresses proliferation of malignant mesothelioma cells than Comparative example 11 and Comparative example 13 | – | –
